Patent publication US20050118564A1, “Methods and compositions for identification and therapeutic use of genes involved in vascular and proliferative diseases” (priority 2002, published 2005)

Assays:
Assay type in all cases: cell-based
[1] = tested on: Human aortic endothelial cells (HAEC); test: VCAM-1 expression in human aortic endothelial cells exposed to disease stimuli; details: 16 hrs, 1 ng/ml TNF-α, 1 nM insulin, alone or together
Method: (§1) Human aortic endothelial cells (HAEC) were grown with culture medium (Basal medium from Clonetics) containing 0.2% albumin with or without 1 ng/ml TNF-α or 100 μg/ml glycated-human serum albumin (HAS) or 1 nM insulin for 16 hrs. Media were collected and the amounts of […] (DuoSet ELISA development kit—R&D Systems) and MCP-1 (Quantiline Human MCP-1 kit—R&D Systems) were measured. VCAM-1 expression was measured by incubating […] with a polyclonal goat anti-human VCAM-1 antibody (R&D Systems, 1:1000 dilution) followed by development with a rabbit anti-goat IgG-conjugated with horseradish peroxidase (HRP).

[2] = tested on: Endothelial and smooth muscle cells grown together; test: IL-6 expression in co-cultures of endothelial and smooth muscle cells; details: endothelial and smooth muscle cells mixed (1:1, 1:2, 1:4) or layered; TNFα 1 ng/ml
Method: Endothelial and smooth muscle cells were grown together in culture media (Basal medium from Clonetics) containing 0.2% albumin. The cells had either nothing added, 1ng/ml TNFα, 1 nM insulin or TNFα and insulin. The media were collected and the amount of IL-6 and MCP-1 was measured.

[3] = tested on: Smooth muscle cells; test: IL-6 secretion by smooth muscle cells exposed to disease stimuli; details: 1 ng/ml TNF-α, 1 nM insulin, alone or together
[4] = tested on: Smooth muscle cells; test: MCP-1 secretion by smooth muscle cells exposed to disease stimuli; details: 1 ng/ml TNF-α, 1 nM insulin, alone or together
[5] = tested on: Human aortic endothelial cells (HAEC); test: MCP-1 secretion by human aortic endothelial cells exposed to disease stimuli (ELISA); details: 16 hrs, stimulus alone: 1 ng/ml TNF-α, 1 nM insulin or 100 μg/ml glycated HSA
Method: as §1

| Substance | effect on VCAM-1 gene expression [1] | stimulus-induced IL-6 expression in co-culture versus cells cultured separately [2] | induction of IL-6 expression [3] | induction of MCP-1 expression [4] | increase in MCP-1 secretion [5] |
| --- | --- | --- | --- | --- | --- |
| TNF-α | 2.8 fold | greatly enhanced | only moderate induction | only moderate induction | about 400% |
| interleukin-1: cytokine used as disease stimulus in co-cultures (FIG. 8: IL-1β) | – | neither interleukin-1 nor glycated albumin/advanced glycation end products (AGE) showed enhanced induction | – | – | – |
| Insulin: hormone used as vascular disease stimulus, 1 nM | no effect | – | only moderate induction | only moderate induction | 40% |
